The test system of one assay is S. pneumoniae 6301. Put plainly: In vivo antibacterial activity (PD50). The note with it: Streptococcus pneumoniae, sc, Table 9.
The next assay concerns S. pyogenes 503-782. The assay is described as follows: In vivo antibacterial activity (PD50). Particulars: Streptococcus pyogenes, 503782; sc; Table 9.
Another assay has as its system S. marcescens SM. The assay is described as follows: In vivo antibacterial activity (PD50). The note with it: sc; for ED50: Serratia marcescens.
The subject of another assay is E. coli 4. The assay is described as follows: In vivo antibacterial activity (PD50). The note with it: Escherichia coli, sc, Table 9.
In the next assay the test system is E. aerogenes 8. Put plainly: In vivo antibacterial activity (PD50).
For another assay, the system named is E. aerogenes 83. Put plainly: In vivo antibacterial activity (PD50). Particulars: Klebsiella aerogenes, sc, Table 9.
The subject of the next assay is E. coli 5152. The assay is described as follows: In vivo antibacterial activity (PD50). Particulars: Escherichia coli, 5152, sc.
Another assay relates to S. marcescens S5. The assay is described as follows: In vivo antibacterial activity (PD50). The note with it: Serratia marcescens, sc, Table 9.
The next assay deals with S. pneumoniae SC. Put plainly: In vivo antibacterial activity (PD50). Particulars: Streptococcus pneumoniae.
The next assay deals with P. aeruginosa 503-56. The assay is described as follows: In vivo antibacterial activity (PD50). The note with it: Pseudomonas aeruginosa, 50356, sc.
The next assay relates to P. aeruginosa POW151. Put plainly: In vivo antibacterial activity (PD50). Particulars: Pseudomonas aeruginosa, sc, Table 9.
A further assay deals with S. aureus Giorgio. The assay is described as follows: In vivo antibacterial activity (PD50). The note with it: Staphylococcus aureus; sc; Table 9.
The next assay concerns K. pneumoniae 39. The assay is described as follows: In vivo activity alone and in combination (PD50, FIC). The note with it: Klebsiella pneumoniae, 39, sc, alone. The protocol:
(§1) In Tables 9-14, the results of the in vivo activity against certain microorganisms of compounds I, M and N as given. […] The results in these Tables and the PD50 's were determined by the procedure set forth on page 160 in Beskid et al., Antimicrobial Agents and Chemotherapy, Vol. 20, No. 2 pp. 159-167 (Aug. 1981) for "in vivo studies".
(§2) In the Tables, the fractional inhibitory concentration index (FIC) for synergistic combination of a compound of this invention (X) with known antibiotic compound (Y) is determined by the following formula:
(§3) FIC=(PD50 (X combination)/PD50 (X alone)+(PD50 (Y
(§4) combination)/PD50 (Y alone)
(§5) An FIC of ≤0.60 is indicative of synergy. The synergy rating in the Tables is as follows:
(§6) In the combination, the parts are parts by weight, i.e. 10 to 1 is 10 parts by weight to 1 part by weight.

Another assay concerns E. coli BC5524. Described as above. The note with it: Escherichia coli, BC5524; sc; alone; read-out: PD50 (alone). The protocol: as §1, §2, §3, §4, §5, §6
The subject of a further assay is E. coli 736. Described as above. Particulars: Escherichia coli, sc, alone. The procedure:
as §1, §2, §3, §4, §5, §6

In a further assay the test system is K. pneumoniae R2296. Described as above. The note with it: Klebsiella pneumoniae, sc, alone. The procedure: as §1, §2, §3, §4, §5, §6
The test system of another assay is S. pneumoniae 6302. Put plainly: In vivo antibacterial activity (PD50). The note with it: Streptococcus pneumoniae, 6302, sc.
The test system of the next assay is P. mirabilis 190. Put plainly: In vivo antibacterial activity (PD50). The note with it: Proteus mirabilis, sc, challenge 10^4 LD50s, 1 treatment, Table 11.
The subject of the next assay is E. cloacae 6951. The assay is described as follows: In vivo antibacterial activity (PD50). The note with it: Enterobacter cloacae, 6951, sc, 2 treatments.
The subject of another assay is C. freundii 8ASM. Put plainly: In vivo antibacterial activity (PD50). Particulars: Citrobacter freundii, sc, challenge 1000 LD50s, 1 treatment, Table 11.
For a further assay, the system named is S. schottmuelleri. Put plainly: In vivo antibacterial activity (PD50). Particulars: sc; challenge 163 LD50s; 1 treatment; Table 11. The procedure:
as §1

The test system of the next assay is E. cloacae 214. The assay is described as follows: In vivo antibacterial activity (PD50). Particulars: Enterobacter cloacae, sc, challenge 3.8 LD50s, 2 treatments, Table 11. The protocol: as §1
The test system of a further assay is E. coli 387-1. Put plainly: In vivo antibacterial activity (PD50). The note with it: Escherichia coli, 3871; sc; challenge 127 LD50s; 1 treatment; Table 11.
Another assay relates to P. vulgaris 100. The assay is described as follows: In vivo antibacterial activity (PD50). Particulars: Proteus vulgaris; sc; challenge 100 LD50s; 1 treatment; Table 11.
A further assay relates to P. aeruginosa 6148B. Put plainly: In vivo antibacterial activity (PD50). The note with it: Pseudomonas aeruginosa, sc.
For the next assay, the system named is K. pneumoniae 8357. Put plainly: animal or person. Particulars: Klebsiella pneumoniae, 8357, sc, read-out: PD50. The format is in vivo.
The subject of a further assay is S. marcescens S3. The assay is described as follows: In vivo antibacterial activity (PD50). Particulars: Serratia marcescens, S3, sc, read-out: PD50.
[1] abbreviates: Klebsiella aerogenes, 8, sc, Table 9, read-out: PD50.
The mark [2] stands for this setting: challenge 489 LD50s, 2 treatments, Table 11.
The mark [3] stands for this setting: Klebsiella aerogenes, 8, sc, read-out: PD50, sc, challenge 10 LD50s, 2 treatments, Table 11.
Setting [4] is: challenge 2717 LD50s, 2 treatments, Table 10.
The mark [5] stands for this setting: challenge 4780 LD50s, 2 treatments, Table 11.
Setting [6] is: challenge 4.7 LD50s, 2 treatments, Table 10.
The mark [7] stands for this setting: challenge 50 LD50s, 2 treatments, Table 11.
Where [8] appears, read: challenge 100 LD50s, 2 treatments, Table 10.
[9] abbreviates: challenge 32 LD50s, 2 treatments, Table 11.
The mark [10] stands for this setting: challenge 1000 LD50s, 1 treatment, Table 11.

Each structure is given as a SMILES string. Counter-ions that a name gives are not always drawn. Like-named read-outs stand apart in the source and are kept apart here.

With `CC1(C)S[C@@H]2[C@H](N=CN3CCC(CCCn4ccnc4N)CC3)C(=O)N2[C@H]1C(=O)O` [I, [2S-(2alpha,5alpha,6beta)]-6-[[[4-[3-(2-amino-1H-imidazol-1-yl)propyl]piperidinyl]methylene]amino]-3,3-dimethyl-7-oxo-4-thia-1-azabicyclo[3.2.0]hpetane-2-carboxylic acid hydrochloride], the ED50 with S. pneumoniae 6301 is > 250 mg/kg; with S. pyogenes 503-782, 59 mg/kg; in the assay with S. marcescens SM (Table 9) it was > 250 mg/kg; in the assay with E. coli 4 it was 1.9 mg/kg; with E. aerogenes 8 (setting [1]), > 250 mg/kg; in the assay on E. aerogenes 83 it was > 250 mg/kg. Further, the ED50 was > 250 mg/kg in the assay on E. coli 5152 (Table 9); > 250 mg/kg in the assay on S. marcescens S5; 3.6 mg/kg in the assay with S. pneumoniae SC (read-out: PD50); > 250 mg/kg with P. aeruginosa 503-56 (Table 9); 111 mg/kg in the assay on P. aeruginosa POW151; > 250 mg/kg in the assay with S. aureus Giorgio. Also, the ED50 in the assay with K. pneumoniae 39 was 115 mg/kg; in the assay on E. coli BC5524, > 250 mg/kg; with E. coli 736, 0.05 mg/kg; in the assay with K. pneumoniae R2296, > 250 mg/kg; in the assay with S. pneumoniae 6302 (Table 9), 202 mg/kg.
In the case of `CC1(C)S[C@@H]2[C@H](/N=C/N3CCCCCC3)C(=O)N2[C@H]1C(=O)O` [Amdinocillin, amdinocillin, reference compound], the ED50 in the assay with S. pneumoniae 6301 is 192 mg/kg; in the assay with S. pyogenes 503-782 it was 80 mg/kg; with S. marcescens SM (Table 9), > 250 mg/kg; with E. coli 4, 4.6 mg/kg; with P. mirabilis 190, 117 mg/kg; in the assay on E. aerogenes 8 (setting [3]), 167 mg/kg. The ED50 with E. aerogenes 8 (setting [1]) is > 250 mg/kg; in the assay on E. aerogenes 83, > 250 mg/kg; in the assay with E. cloacae 6951 (challenge 562 LD50s, Table 10) it was 18 mg/kg; with E. cloacae 6951 (challenge 3162 LD50s, Table 11), 2.5 mg/kg; in the assay with E. coli 5152 (Table 9), > 250 mg/kg; with E. coli 5152 (setting [4]) it was 84 mg/kg. Further, the ED50 with E. coli 5152 (setting [5]) is 150 mg/kg; in the assay with S. marcescens S5, > 250 mg/kg; with C. freundii 8ASM, 0.76 mg/kg; in the assay on S. schottmuelleri, 0.25 mg/kg; in the assay with E. cloacae 214, < 10 mg/kg; with S. pneumoniae SC (Table 9, read-out: PD50) it was < 2 mg/kg. Besides, the ED50 was < 0.2 mg/kg with E. coli 387-1; > 250 mg/kg in the assay with P. aeruginosa 503-56 (Table 9); > 250 mg/kg with P. aeruginosa 503-56 (setting [6]); > 250 mg/kg with P. aeruginosa 503-56 (setting [7]); > 250 mg/kg in the assay on P. aeruginosa 503-56 (setting [8]); 45 mg/kg in the assay with P. vulgaris 100. In addition, the ED50 with P. aeruginosa 6148B (setting [9]) was > 250 mg/kg; in the assay with K. pneumoniae 8357, 6.7 mg/kg; in the assay with P. aeruginosa POW151, 143 mg/kg; with S. aureus Giorgio it was > 250 mg/kg; in the assay with S. pneumoniae 6302 (Table 9), 204 mg/kg; with S. pneumoniae 6302 (setting [10]), > 250 mg/kg. In addition, the ED50 with S. marcescens S3 was 2.7 mg/kg. The PD50 in the assay on S. marcescens SM (setting [2]) is > 250 mg/kg.
As for `CC1(C)S[C@@H]2[C@H](N=CN3CCC(CC4=NCCN4)CC3)C(=O)N2[C@H]1C(=O)O` [M, [2S-(2alpha,5alpha,6beta)]-6-[[[4-[(4,5-dihydro-1H-imidazol-2-yl)methyl]-1-piperidinyl]methylene]amino]-3,3-dimethyl-7-oxo-4-thia-1-azabicyclo[3.2.0]heptane-2-carboxylic acid hydrochloride], the ED50 with E. aerogenes 8 (Klebsiella aerogenes, 8, sc, read-out: PD50, sc, challenge 24 LD50s, 2 treatments, Table 10) is 60 mg/kg; in the assay on E. cloacae 6951 (challenge 562 LD50s, Table 10), 15 mg/kg; in the assay on E. coli 5152 (setting [4]) it was 134 mg/kg; in the assay with P. aeruginosa 503-56 (setting [6]), 67 mg/kg; in the assay on P. aeruginosa 503-56 (setting [8]) it was 100 mg/kg; with P. aeruginosa 6148B (challenge 4.5 LD50s, 3 treatments, Table 10), < 20 mg/kg. Also, the ED50 in the assay on P. aeruginosa 6148B (challenge 33 LD50s, 3 treatments, Table 10) is < 20 mg/kg; in the assay on K. pneumoniae 39, 5 mg/kg; with E. coli BC5524, 80 mg/kg; in the assay on K. pneumoniae R2296, > 250 mg/kg.
`CC1(C)S[C@@H]2[C@H](N=CN3CCC(CCC4=NCCN4)CC3)C(=O)N2[C@H]1C(=O)O` [N, [2S-(2alpha,5alpha,6beta)]-6-[[[4-[4,5-dihydro-1H-imidazol-2-yl)ethyl]-1-piperidinyl]methylene]amino]-3,3-dimethyl-7-oxo-4-thia-1-azabicyclo[3.2.0]heptane-2-carboxylic acid hydrochloride]: the ED50 was 19 mg/kg with S. marcescens SM (setting [2]); 140 mg/kg in the assay on P. mirabilis 190; > 250 mg/kg in the assay on E. aerogenes 8 (setting [3]); < 2 mg/kg with E. cloacae 6951 (challenge 3162 LD50s, Table 11); 30 mg/kg in the assay with E. coli 5152 (setting [5]); 0.22 mg/kg in the assay on C. freundii 8ASM. The ED50 in the assay with S. schottmuelleri was < 0.05 mg/kg; with E. cloacae 214, < 10 mg/kg; in the assay with E. coli 387-1, < 0.2 mg/kg; in the assay on P. aeruginosa 503-56 (setting [7]), 43 mg/kg; in the assay on P. vulgaris 100, 67 mg/kg; in the assay with P. aeruginosa 6148B (setting [9]), 37 mg/kg. For the same compound, the ED50 is 6.2 mg/kg with K. pneumoniae 8357; 18 mg/kg in the assay on K. pneumoniae 39; 114 mg/kg in the assay on E. coli BC5524; > 250 mg/kg with K. pneumoniae R2296; 78 mg/kg with S. pneumoniae 6302 (setting [10]); < 0.5 mg/kg in the assay with S. marcescens S3.

(Values after patent US4605744A, “Imidazole derivatives” (Hoffmann-La Roche Inc., priority 1985, dated 1986).)
